We go through eight compounds from PMC6150379, “Novel Triazole Hybrids of Betulin: Synthesis and Biological Activity Profile” (Molecules : A Journal of Synthetic Chemistry and Natural …, 2017).

The subject of data set [1] is cytopathogenic bovine orphan virus (ECBO) strain LCR-4. As to the kind of experiment: Time of addition assay (post-adsorption), CPE/MTT in A549 cells. Format: cell-based, cytopathogenic bovine orphan virus (BEV-1). To be noted: for EC50: A549; for antiviral activity: ECBO, A549 cells, CC20 concentration.
Data set [2] deals with T47D (human ductal carcinoma). As to the kind of experiment: Cytotoxic activity, WST-1 assay. Format: cell-based. To be noted: 72 h, Neg = negative in the concentration used; for IC50: Homo sapiens. Background: Tetrazolium assays rely on reduction of a dye to a coloured formazan, in cell work by metabolically active cells.
For data set [3], the system named is MCF-7 (human adenocarcinoma). As to the kind of experiment: Cytotoxic activity, WST-1 assay. As to conditions: MCF-7, 72 h, Neg = negative in the concentration used; for IC50: Homo sapiens, MCF7. Format: cell-based.
The next data set has as its system SNB-19 (glioblastoma). As to the kind of experiment: Cytotoxic activity, WST-1 assay. Format: cell-based, human. As to conditions: SNB-19, 72 h, Neg = negative in the concentration used; for IC50: Homo sapiens.
For data set [4], the system named is Colo-829 (human malignant melanoma). The experiment in a line: Cytotoxic activity, WST-1 assay. Format: cell-based. To be noted: Homo sapiens; Colo-829, 72 h; Neg = negative in the concentration used.
Data set [5] relates to C-32 (human amelanotic melanoma). The experiment in a line: Cytotoxic activity, WST-1 assay. Format: cell-based. To be noted: C-32, 72 h, Neg = negative in the concentration used; for IC50: Homo sapiens.
Data set [6] has as its system SKOV-3 human ovarian cancer cell line. As to the kind of experiment: Inhibition of tumor cell proliferation (MTT). To be noted: SK-OV-3, 96 h, read-out: Max. Inhibition (% of Control).
Description: Antiproliferative activities of the compounds were measured by the MTT assay using A549 cells and a human ovarian cancer cell line SKOV-3 (adenocarcinoma ATCC® HTB77™). A total of 2 × 10^3 cells in DMEM medium supplemented with 5% FBS were placed in each well of a 96-well flat-bottom plate. After 24 h of incubation at 37 °C in 5% CO2, the growth medium was replaced by media containing different concentrations of the derivatives. Control cultures received cisplatin 0.1–10 μg/mL, and blank wells contained 100 μL of growth medium with no cells. After 96 h of incubation, cell proliferation was determined by the colorimetric MTT assay (570 nm) reading for each concentration compared with the control. At least three replicates for each sample were used to determine the cell proliferation.
Data set [7] can be described thus: Cytotoxicity assay (MTT), determination of CC50. To be noted: human.
Description: (§1) The cytotoxic effect of compounds on A549 cells was determined by the MTT method, as previously described [36]. The MTT assay is the enzyme-based method, which use the 3-(4,5-dimethylthiazol-2-yl)-2,5-diphenyltetrazolium bromide as a reductive coloring agent. Briefly, subconfluent monolayers of A549 cells (2 × 10^4 cell/well in Dulbecco’s Minimal Essential Medium (DMEM) supplemented with 5% fetal bovine serum (FBS), antibiotics (100 U/mL penicillin and 100 μg/mL streptomycin), and 2 mM L-glutamine (all from Sigma Aldrich, St. Louis, MO, USA) were incubated in 96-multi-well plates in the presence of dilutions of the compounds ranging from 100 μg/mL to 0.5 μg/mL, in triplicate for 48 h at 37 °C in a humidified atmosphere with 5% CO2. After 48 h, 20 μL of MTT solution (Promega, Madison, WI, USA) was added to each well, and the microplates were kept at 37 °C/5% CO2 for 3 h. Then, the solubilization/stop solution containing SDS-HCl (100 μL/well) was added, and the absorbance values of the wells were measured at 570 nm using a 96-well plate reader (Multiskan RC spectrophotometer, Thermo Labsystems, Waltham, MA, USA). Cell viability (%) was calculated for each concentration as Abs treated/Abs control × 100, where Abs treated and Abs control are the absorbance readings for the wells with and without the tested compounds, respectively. The 50% cytotoxic concentration (CC50) was defined as the concentration that reduced cell viability by 50% with respect to controls without drugs. The CC50 value was calculated from the corresponding dose–response curves.
For data set [8], the system named is human adenovirus type-5 (HAdV-5). The experiment in a line: Time of addition assay, CPE/MTT in A549 cells. Format: cell-based. To be noted: for antiviral activity: HAdV-5, A549 cells, CC20 concentration.
Data set [9] has as its system vesicular stomatitis virus (VSV). Format: cell-based. As to conditions: A549 cells, CC20 concentration.
Data set [10] has as its system herpes simplex virus type-1 (HSV-1). As to the kind of experiment: Time of addition assay, CPE/MTT in A549 cells. Format: cell-based. As to conditions: HSV-1, A549 cells, CC20 concentration.
A short description of a further data set: in vitro. To be noted: human.
In data set [11] the test system is Escherichia coli ATCC 25922. The experiment in a line: Broth microdilution method (MIC, MBC). Background: Broth dilution looks for growth in wells or tubes with falling amounts of substance.
Description: (§2) The minimal inhibitory concentration (MIC) and minimal bactericidal concentration (MBC) were determined by the broth microdilution method, according to the Clinical and Laboratory Standards Institute [32, 33].
(§3) The antibacterial and antifungal activities of compounds were evaluated using the following strains: Staphylococcus aureus (ATCC 25923), Enterococcus faecalis (ATCC 29212), Escherichia coli (ATTC 25922), Pseudomonas aeruginosa (ATTC 27853), Klebsiella pneumoniae ATTC 700603), and Candida albicans (ATTC 10231). Cells were cultured for 24–48 h on Columbia agar or Sabouraud agar (C. albicans) in a saline solution (0.9% NaCl) and adjusted to a 0.5 McFarland density standard (1.5 × 10^8 CFU/mL). The final density of microorganisms was approximately 3 × 10^5 CFU/mL. The solutions of compounds were added to the medium at various concentrations (0.06 μM–2 mM). […] The experiments were performed in triplicate.
In data set [12] the test system is Klebsiella pneumoniae ATCC 700603. The experiment in a line: Broth microdilution method (MIC, MBC).
Description: as §2, §3
The mark [13] stands for this setting: selectivity index, ratio of CC50 to EC50, ECBO in A549 cells.

Molecules are shown by their SMILES. ≈ marks a conversion by molar mass, not a printed value. Where two headings read alike, the source gives them in different places.

By EC50 is commonly meant the concentration needed to bring the measured effect to its halfway point. Higher therefore signals weaker potency. Usually IC50 stands for the midpoint of a concentration-inhibition curve. As usually defined, the inhibition is the drop in the measured response relative to a control, in per cent. As usually defined, the melting point is the temperature, or range, at which the solid turns liquid. As usually defined, the MBC is the lowest tested concentration that kills the bacteria rather than only halting them. The term MIC denotes the lowest concentration found to suppress growth. Lower therefore signals inhibition by little substance.

Description for in vitro: as §1

`C=C(C)[C@@H]1CC[C@]2(CO)CC[C@]3(C)[C@H](CC[C@@H]4[C@@]5(C)CC[C@H](O)C(C)(C)[C@@H]5CC[C@]43C)[C@@H]12` [Betulin 1, Betulin]: in data set [1], the EC50 is 0.5 µg/mL (≈ 1.13 µM). Moreover, the SI in [1] (setting [13]) came out at 37.0; in data set [1] (selectivity index, ratio of CC50 to EC50, ECBO in A549 cells, listed as betulin 1) it was 37. Besides, the “IC50 ± SD” value in data set [2], in [3] and in data set [5] was “Neg” each time. The IC50 in the data set with SNB-19 (glioblastoma) came to 17.7 ± 1.2 µM; in [4], 15.3 ± 2.2 µM. For the same compound, the inhibition at 2.5 µg/mL in data set [6] is 30%. The compound also displayed a CC50 at 48 h in data set [7] of 18.5 µg/mL (≈ 41.8 µM).
`C#CC(=O)OC[C@]12CCC(C(=C)C)C1C1CCC3[C@@]4(C)CC[C@H](O)C(C)(C)C4CC[C@@]3(C)[C@]1(C)CC2` (stereo partly shown) [Compound 3, 28-O-propynoylbetulin]: the antiviral activity entry in [1], in data set [8], in data set [9] and in data set [10] was “did not exhibit antiviral activity” in each case. Also, the concentration for half-maximal inhibition (IC50) worked out at 110.8 ± 0.9 µM in data set [2]; 102 ± 1.4 µM in data set [3]; 4.2 ± 0.3 µM with SNB-19 (glioblastoma); 1.7 ± 0.08 µM in data set [4]; 16.7 ± 0.8 µM in [5].
As for `C#CC(=O)OC[C@]12CCC(C(=C)C)C1C1CCC3[C@@]4(C)CC[C@H](OC(=O)C#C)C(C)(C)C4CC[C@@]3(C)[C@]1(C)CC2` (stereo partly shown) [Compound 4, 3,28-O,O’-di(propynoyl)betulin], the antiviral activity result in data set [1], in data set [8], in data set [9] and in data set [10] was “did not exhibit antiviral activity” throughout. The “IC50 ± SD” value in [2] and in [3] was “Neg” in each case. Besides, the values for the concentration for half-maximal inhibition (IC50) (in the data set on SNB-19 (glioblastoma); in data set [4]; in data set [5]) were 13.1 ± 1.3 µM, 9.7 ± 1.5 µM and 121 ± 4.1 µM, respectively.
Regarding `C=C(C)C1CCC2(COC(=O)c3cn(C4CC(n5cc(C)c(=O)[nH]c5=O)OC4CO)nn3)CCC3(C)C(CCC4C5(C)CCC(O)C(C)(C)C5CCC43C)C12` (stereo not shown) [Compound 5e], the melting point is 181 to 185 °C. Moreover, in [1], the EC50 came out at 1 µg/mL (≈ 1.31 µM). Moreover, the SI in data set [1] (setting [13]) was 10.3. Moreover, the SI in data set [8] (anti-HAdV-5 activity, ratio of CC50 to EC50, data not shown) is listed as 6. In data set [2], the “IC50 ± SD” value is “total decay of cytotoxic activity and Neg”. Also, the “IC50 ± SD” value in data set [3] is given as “Neg”. Moreover, in the data set on SNB-19 (glioblastoma), the “IC50 ± SD” value is “Neg”. It took 35.1 ± 6.2 µM to reach half-maximal inhibition in data set [4] (IC50). The same compound had a concentration for half-maximal inhibition (IC50) in [5] of 75.2 ± 3.7 µM. Further, in the data set “in vitro”, the CC50 at 48 h is 10.3 µg/mL (≈ 13.5 µM). Further, the MBC in data set [11] (ATCC25922) was determined as 7.8 µM (≈ 5.94 µg/mL). Also, it took 1.95 µM (≈ 1.49 µg/mL) to inhibit growth in [11] (ATCC25922, 18 h) (MIC). Besides, the bactericidal capacity entry in data set [11] (judged from MBC:MIC ratio) is “bactericidal activity”. In data set [12], the “MBC:MIC ratio” value is greater than 4. The same compound displayed a minimum bactericidal concentration (MBC) in data set [12] (ATCC700603) of 3.9 µM (≈ 2.97 µg/mL). Also, in data set [12] (ATCC700603, 18 h), the minimum inhibitory concentration (MIC) came to 0.95 µM (≈ 0.724 µg/mL). Also, the bactericidal capacity result in data set [12] (judged from MBC:MIC ratio) is on record as “bacteriostatic”. Also, in data set [6], the inhibition at 50 µg/mL turned out to be 75%.
For `C=C(C)C1CCC2(COC(=O)c3cn(C4OC(CO)C(O)C(O)C4O)nn3)CCC3(C)C(CCC4C5(C)CCC(O)C(C)(C)C5CCC43C)C12` [Compound 5f, 28-O-[1-(1-Deoxy-β-D-glucopyranosyl)-1H-1,2,3-triazol-4-yl]carbonylbetulin], the melting point is 184 to 186 °C. It took 5 µg/mL (≈ 7.14 µM) to reach a half-maximal effect in data set [1] (EC50). In addition, in [1] (setting [13]), the SI turned out to be 20.0. Moreover, the “IC50 ± SD” value in data set [2] was “total decay of cytotoxic activity and Neg”. For the same compound, the “IC50 ± SD” value in [3] is “Neg”. In the data set with SNB-19 (glioblastoma), the “IC50 ± SD” value is “Neg”. In data set [4], this compound showed an IC50 of 110 ± 7.2 µM. Also, in data set [5], the “IC50 ± SD” value is given as “Neg”. In addition, the CC50 at 48 h in “in vitro” amounted to 100 µg/mL (≈ 143 µM). Also, the inhibition at 25 µg/mL in [6] was determined as 35%.
Compound `C=C(C)C1CC[C@]2(COC(=O)c3cn(CC(N)C(=O)O)nn3)CC[C@]3(C)C(CCC4[C@@]5(C)CC[C@H](O)C(C)(C)C5CC[C@]43C)C12` (stereo partly shown) [Compound 5j, 2-Amino-3-[4-(28-O-betulinylcarbonyl)-1H-1,2,3-triazol-1-yl]propanoic acid] gave a melting point of 265 to 269 °C. The same compound registered an EC50 in data set [1] of 5 µg/mL (≈ 8 µM). Besides, the SI in [1] (setting [13]) is recorded as 20.0. Besides, the “IC50 ± SD” value in data set [2] was “total decay of cytotoxic activity and Neg”. Further, the “IC50 ± SD” value in data set [3] is “Neg”. For the same compound, the “IC50 ± SD” value in the data set with SNB-19 (glioblastoma) was “Neg”. The compound also showed an IC50 in [4] of 3.3 ± 1.1 µM. The “IC50 ± SD” value in data set [5] is given as “Neg”. The CC50 at 48 h in “in vitro” stood at 100 µg/mL (≈ 160 µM). Also, the inhibition at 10 µg/mL in [6] was 40%.
As for `C=C(C)C1CC[C@]2(COC(=O)c3cn(CCCO)nn3)CC[C@]3(C)C(CCC4[C@@]5(C)CC[C@H](OC(=O)c6cn(CCCO)nn6)C(C)(C)C5CC[C@]43C)C12` (stereo partly shown) [Compound 6h, 3,28-O,O’-Di[1-(3-hydroxypropyl-1H-1,2,3-triazol-4-yl)carbonyl]betulin], the melting point lay within 172 to 176 °C. In data set [1], this compound came in with a half-maximal effective concentration (EC50) of 0.25 µg/mL (≈ 0.334 µM). For the same compound, in [8], the antiviral activity entry was “essentially inactive”. The antiviral activity entry in data set [9] is “essentially inactive”. Also, the antiviral activity result in data set [10] was “essentially inactive”. This compound registered a half-maximal inhibitory concentration (IC50) in data set [2] of 62.4 ± 1.1 µM. Moreover, half-maximal inhibition in data set [3] (IC50) required 11.7 ± 1.2 µM. For the same compound, half-maximal inhibition in the data set on SNB-19 (glioblastoma) (IC50) was put at 68.3 ± 0.9 µM. Further, the IC50 in data set [4] came out at 6.5 ± 1 µM. For the same compound, the IC50 in data set [5] is 9.1 ± 0.2 µM. For the same compound, in “in vitro”, the CC50 at 48 h was found to be 29.8 µg/mL (≈ 39.8 µM). Also, the inhibition at 50 µg/mL in data set [6] came to 70%.
As for `NC(=O)c1ncn([C@@H]2O[C@H](CO)[C@@H](O)[C@H]2O)n1` [Ribavirin, reference compound], in data set [1], the SI is 10.0 and the EC50 stood at 10 µg/mL (≈ 40.9 µM). The inhibition at 1.5 µg/mL in data set [6] was 30%. The CC50 at 48 h in [7] (A549 cells) is 100 µg/mL (≈ 409 µM).
